Results on 24 molecules are retold here after ChEMBL document CHEMBL5230159, “Targeting Metalloenzymes by Boron-Containing Metal-Binding Pharmacophores” (J Med Chem, 2021).

A word on the IC50: it is the point on the concentration scale where inhibition reaches its midpoint. Usually Ki stands for the dissociation constant of the complex between target and ligand, obtained from inhibition or displacement. Usually bioavailability stands for the share of a dose that reaches the circulation, judged against a reference dose that is usually intravenous. A higher bioavailability goes with much systemic uptake. A word on the CL/F: it is clearance divided by bioavailability, as obtained after extravascular dosing. A word on the inhibition: it is the percentage by which the read-out fell short of the control. Usually Kd stands for the concentration at which binding is half-saturated. The low end stands for a tighter complex, the high end for a looser complex.

Data set [1] concerns the target T1, 3',5'-cyclic-AMP phosphodiesterase 4B (Homo sapiens, UniProt Q07343). The data set is described as follows: Inhibition of human PDE4 catalytic domain expressed in Escherichia coli.
The nature of data set [2]: Inhibition of Escherichia coli NDM-1.
Data set [3] in a line: Inhibition of Escherichia coli VIM-2.
Data set [4] has as its target T2, Autotaxin (Homo sapiens, UniProt Q13822). The data set is described as follows: Inhibition of human recombinant ATX.
Another data set concerns the target Carbonic anhydrase 12 (Homo sapiens, UniProt O43570). The data set is described as follows: Binding affinity to human CA12 assessed as inhibition constant.
A further data set concerns the target Carbonic anhydrase 9 (Homo sapiens, UniProt Q16790). The data set is described as follows: Binding affinity to human CA9 assessed as inhibition constant.
For data set [5], the target named is T3, Arginase-1 (Rattus norvegicus, UniProt P07824).
T3 sequence (P07824 whole entry): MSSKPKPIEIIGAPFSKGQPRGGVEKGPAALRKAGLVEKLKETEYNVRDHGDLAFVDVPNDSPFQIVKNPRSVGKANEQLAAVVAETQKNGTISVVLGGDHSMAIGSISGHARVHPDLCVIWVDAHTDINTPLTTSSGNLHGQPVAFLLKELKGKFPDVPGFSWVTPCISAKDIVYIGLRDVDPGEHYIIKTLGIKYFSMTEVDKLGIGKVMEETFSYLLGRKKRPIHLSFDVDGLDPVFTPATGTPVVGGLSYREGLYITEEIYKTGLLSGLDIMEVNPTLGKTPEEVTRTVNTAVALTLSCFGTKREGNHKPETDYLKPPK
In words: Inhibition of rat liver arginase using L-arginine as substrate incubated for 10 mins followed by substrate addition by scintillation counting analysis. The data set is classed as tissue-based.

Data set [6] is described as follows: Oral bioavailability in C57BL/6 mouse at 25 to 50 mg/kg by LC-MS/MS analysis. Particulars: in vivo, dose 25-50 mg/kg. Type of data set: ADME, organism-based.
A short description of data set [7]: Clearance in C57BL/6 mouse at 25 to 50 mg/kg, po by LC-MS/MS analysis. Type of data set: ADME, organism-based. The note with it: in vivo, dose 25-50 mg/kg.
The target of data set [8] is T4, Arginase-2, mitochondrial (Homo sapiens, UniProt P78540).
T4 sequence (P78540 whole entry): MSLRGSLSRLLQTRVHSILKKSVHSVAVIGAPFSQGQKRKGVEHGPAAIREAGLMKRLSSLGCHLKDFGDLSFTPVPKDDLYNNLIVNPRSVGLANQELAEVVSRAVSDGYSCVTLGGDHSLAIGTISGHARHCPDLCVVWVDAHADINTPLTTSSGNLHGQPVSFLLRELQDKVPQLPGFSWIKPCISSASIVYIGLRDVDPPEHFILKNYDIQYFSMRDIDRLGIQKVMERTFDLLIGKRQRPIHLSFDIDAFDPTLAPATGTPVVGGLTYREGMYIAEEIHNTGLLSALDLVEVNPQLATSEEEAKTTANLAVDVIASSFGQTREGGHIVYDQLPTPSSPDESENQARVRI
In words: Binding affinity to human Arg II.

Data set [9] can be described thus: Inhibition of beta-lactamase TEM-1 (unknown origin). The arrangement: species or system Bacteria.
In data set [10] the target is T1, 3',5'-cyclic-AMP phosphodiesterase 4B. In words: Inhibition of human PDE4 catalytic domain expressed in Escherichia coli at 10 uM relative to control.
The target in data set [11] is T5, Arginase-1 (Homo sapiens, UniProt P05089).
T5 sequence (P05089 whole entry): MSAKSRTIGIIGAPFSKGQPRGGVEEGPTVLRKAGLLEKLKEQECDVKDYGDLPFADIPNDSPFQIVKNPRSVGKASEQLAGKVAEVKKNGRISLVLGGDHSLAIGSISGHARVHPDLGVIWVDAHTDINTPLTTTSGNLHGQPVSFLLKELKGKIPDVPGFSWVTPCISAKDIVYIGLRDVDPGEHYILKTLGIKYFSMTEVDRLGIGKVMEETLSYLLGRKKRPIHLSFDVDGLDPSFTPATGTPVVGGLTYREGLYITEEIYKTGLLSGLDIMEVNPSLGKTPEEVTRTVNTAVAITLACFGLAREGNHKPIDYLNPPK
The data set is described as follows: Binding affinity to human Arg I.

In data set [12] the target is T2, Autotaxin. The data set is described as follows: Inhibition of human recombinant ATX using ABTS as substrate by absorbance based analysis.
In the next data set the target is BlaVIM-1 (Escherichia coli, UniProt Q8GDC1). In words: Inhibition of Escherichia coli VIM-1.
Data set [13] is described as follows: Inhibition of Escherichia coli IMP-1.
For a further data set, the target named is Carbonic anhydrase 1 (Homo sapiens, UniProt P00915). In words: Binding affinity to human CA1 assessed as inhibition constant.
Carbonic anhydrase 1, sequence (P00915 whole entry): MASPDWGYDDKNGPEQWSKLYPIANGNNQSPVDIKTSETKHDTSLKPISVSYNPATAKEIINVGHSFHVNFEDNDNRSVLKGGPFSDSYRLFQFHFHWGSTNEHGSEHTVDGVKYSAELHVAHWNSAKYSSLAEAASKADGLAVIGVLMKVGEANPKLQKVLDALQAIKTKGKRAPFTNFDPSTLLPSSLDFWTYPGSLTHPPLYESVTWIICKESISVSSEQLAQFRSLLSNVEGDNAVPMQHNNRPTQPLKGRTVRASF
In data set [14] the target is T3, Arginase-1. The data set is described as follows: Binding affinity to rat Arg I.
Data set [15] addresses T5, Arginase-1. The data set is described as follows: Inhibition of human Arg I.

T1 sequence (Q07343 whole entry, the tested form may be a part): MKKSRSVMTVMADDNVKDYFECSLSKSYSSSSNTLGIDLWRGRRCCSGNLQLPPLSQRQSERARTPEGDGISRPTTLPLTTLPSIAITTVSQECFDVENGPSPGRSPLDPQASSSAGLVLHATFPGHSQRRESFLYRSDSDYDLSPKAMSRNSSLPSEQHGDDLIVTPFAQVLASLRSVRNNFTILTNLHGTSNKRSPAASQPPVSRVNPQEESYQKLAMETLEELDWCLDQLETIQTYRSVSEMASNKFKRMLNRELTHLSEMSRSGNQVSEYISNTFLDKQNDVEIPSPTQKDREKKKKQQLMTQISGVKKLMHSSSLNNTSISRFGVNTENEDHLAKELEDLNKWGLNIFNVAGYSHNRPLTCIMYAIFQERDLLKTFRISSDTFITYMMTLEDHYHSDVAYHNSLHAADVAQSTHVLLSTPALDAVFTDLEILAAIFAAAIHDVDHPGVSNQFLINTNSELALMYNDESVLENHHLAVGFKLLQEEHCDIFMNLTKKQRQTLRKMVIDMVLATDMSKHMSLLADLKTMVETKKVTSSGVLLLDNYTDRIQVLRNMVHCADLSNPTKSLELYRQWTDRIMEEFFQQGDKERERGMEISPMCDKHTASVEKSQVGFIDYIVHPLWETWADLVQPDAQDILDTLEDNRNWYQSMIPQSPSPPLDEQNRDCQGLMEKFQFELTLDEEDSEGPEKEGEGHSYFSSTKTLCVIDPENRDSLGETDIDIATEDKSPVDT
Carbonic anhydrase 12, sequence (O43570 whole entry): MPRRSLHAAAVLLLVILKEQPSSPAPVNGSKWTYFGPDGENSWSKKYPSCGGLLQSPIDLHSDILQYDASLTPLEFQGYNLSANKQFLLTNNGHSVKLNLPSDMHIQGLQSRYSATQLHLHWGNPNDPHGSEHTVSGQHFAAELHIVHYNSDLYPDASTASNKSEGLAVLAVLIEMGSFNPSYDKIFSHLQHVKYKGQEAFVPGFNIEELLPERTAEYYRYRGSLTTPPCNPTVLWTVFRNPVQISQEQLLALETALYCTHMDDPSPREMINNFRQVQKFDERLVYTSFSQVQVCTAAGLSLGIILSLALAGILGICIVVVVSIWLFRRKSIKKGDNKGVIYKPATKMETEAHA

The molecule `CC(=O)OCCOc1cc(Oc2ccc3c(c2)COB3O)ccc1C#N` came in with an IC50 in data set [1] of 0.0007 µM.
Consider `O=C(O)c1cccc2c1OB(O)[C@@H](NC(=O)C1CCCCC1)C2`, for which the IC50 came to 2.04 µM in [2] and 0.051 µM in [3].
`CCOC(=O)c1ccc(Oc2ccc3c(c2)COB3O)nc1` came in with an IC50 in data set [1] of 0.047 µM.
On to `O=C1N=C(N2CCN(Cc3ccc(C(=O)O)cc3)CC2)S/C1=C\c1ccc(Cl)c(Cl)c1`, for which the IC50 at Autotaxin [4] was found to be 0.025 µM.
As for `N#Cc1ccc(Oc2ccc3c(c2)COB3O)cc1` [CRISABOROLE], half-maximal inhibition in [1] (IC50) required 0.11 µM.
In the case of `OB1OCc2ccc(NC(=S)Nc3ccc(C(F)(F)F)cc3)cc21`, the Ki at Carbonic anhydrase 12 came out at 0.071 µM; at Carbonic anhydrase 9 it was 0.093 µM.
For the molecule `CCOc1nc(-c2cncc(C3COB(O)C3)c2)c(F)cc1OC` (stereo not drawn), in [1], 0.00012 µM corresponded to half-maximal inhibition (IC50).
In turn, `N[C@@H](CC/C=C/B(O)O)C(=O)O` came in with an IC50 against Arginase-1 [5] of 15 µM.
As to `C[C@H](N)C(=O)N1C[C@H](CCCB(O)O)[C@](N)(C(=O)O)C1`, the bioavailability in [6] came to 91%. Besides, the CL/F in data set [7] was 10 mL/min/kg.
In turn, `OB(O)/C=C/Cc1ccccc1` came in with a Ki in data set [8] of 0.089 µM.
In [9], `CC(=O)N[C@H]1Cc2cccc(C(=O)O)c2OB1O` returned an IC50 of 0.013 µM.
Regarding `NC(Cc1ccc(B(O)O)cc1)C(=O)O` (stereo not drawn), at Arginase-1 [5], half-maximal inhibition (IC50) was put at 6000 µM.
As to `O=C(O)c1ccc(Oc2ccc3c(c2)COB3O)nc1`, in [10], the inhibition was 5%. The half-maximal inhibitory concentration (IC50) in data set [1] was greater than 0.01 µM.
On Arginase-1 [11], `N[C@@H](CCCC[N+](=O)[O-])C(=O)O` showed a Kd of 60 µM.
`Nc1nccn1CCC[C@H](N)C(=O)O` displayed a Ki on Arginase-1 [11] of 30000 µM.
Regarding `N#Cc1ccc(Oc2ccc3c(c2)COB3O)cc1C#N`, the IC50 in data set [1] was found to be 0.06 µM.
`O=C1S/C(=C\c2ccc(OCc3ccccc3B(O)O)cc2)C(=O)N1Cc1ccc(F)cc1`: the IC50 on Autotaxin [12] is greater than 0.005 µM.
For `NCCN[C@H]1CC[C@H](CC(=O)N[C@H]2Cc3cccc(C(=O)O)c3OB2O)CC1`, the IC50 was 0.0079 µM on BlaVIM-1, 0.01 µM in data set [2], 0.0005 µM in data set [3] and 2.5 µM in data set [13].
Consider `COc1ccc(C)cc1NC(=O)Nc1ccc2c(c1)B(O)OC2`, for which the values for the Ki on Carbonic anhydrase 1, at Carbonic anhydrase 12 and on Carbonic anhydrase 9 were 0.098 µM, 0.069 µM and 0.414 µM, respectively.
On to `NC(CCCCC(=O)O)C(=O)O` (stereo not drawn), for which, at Arginase-1 [14], binding was characterised by a dissociation constant (Kd) of 30000 µM.
Consider `N#Cc1ccc(Oc2ccc3c(c2)COB3O)nc1`, for which it took 0.18 µM to reach half-maximal inhibition in data set [1] (IC50).
`N[C@@H](CCCCC=O)C(=O)O` yielded a Ki at Arginase-1 [14] of 60 µM.
Regarding `N#Cc1ccc(Oc2ccc3c(c2)COB3O)cc1OCCO`, it took 0.024 µM to reach half-maximal inhibition in data set [1] (IC50).
In turn, `N[C@@H](CCCCB(O)O)C(=O)O` gave an IC50 against Arginase-1 [15] of 1.45 µM.
